Like-named read-outs stand apart in the source and are kept apart here. Ends that are not written are not given here. Peptide text beside a SMILES is read from it.
Assays:
[1] = test system: MKN-1 gastric cancer cells; test: MTT assay after transfection of S-oligonucleotides, MKN-1; assay type: cell-based, human; details: MKN-1 cells, six days after transfection
Experimental: (§1) Cells plated onto 10-cm dishes (2×10^5 cells/dish) were transfected either with plasmid, or synthetic S-oligonucleotides of CXADRL1, GCUD1, or RNF43 using LIPOFECTIN Reagent (GIBCO BRL). Then the cells were cultured with the addition of an appropriate concentration of geneticin for six to twelve days. The cells were then fixed with 100% methanol and stained by Giemsa solution. Sequences of the S-oligonucleotides were as follows:
(§2) Cells plated at a density of 5×10^5 cells/100 mm dish were transfected in triplicate with sense or antisense S-oligonucleotides designated to suppress the expression of CXADRL1, GCUD1, or RNF43. […] Subsequently, the cells were lysed by the addition of 1 ml of 0.01 N HCl/10% SDS and the absorbance of lysates was measured with ELISA plate reader at a test wavelength of 570 nm (reference, 630 nm). The cell viability was represented by the absorbance compared to that of control cells.

SNU475 = test: Cytotoxicity of CTLs against tumor cell line SNU475; assay type: cell-based, human; details: SNU475 expresses CXADRL1, GCUD1 and HLA-A*0201
Experimental: (§3) Target cells were labeled with 100 μCi of Na2^51CrO4 (Perkin Elmer Life Sciences) for 1 h at 37° C. in a CO2 incubator. When peptide-pulsed targets were used, target cells were incubated with the addition of 20 μg/ml of the peptide for 16 h at 37° C. before the labeling with Na2^51CrO4. Target cells were rinsed and mixed with effectors at a final volume of 0.2 ml in round-bottom microtiter plates. The plates were centrifuged (4 minutes at 800×g) to increase cell-to-cell contact and placed in a CO2 incubator at 37° C. After 4 h of incubation, 0.1 ml of the supernatant was collected from each well and the radioactivity was determined with a gamma counter. In case of evaluating cytotoxicity against target cells that endogenously express RNF43, CXADRL1, or GCUD1, the cytolytic activity was tested in the presence of a 30-fold excess of unlabeled K562 cells to reduce any non-specific lysis due to NK-like effectors. […] The MHC restriction was examined by blocking assay, measuring the inhibition of the cytotoxicity with anti-HLA-class I (W6/32) antibody and anti-HLA-class II antibody, or anti-CD4 antibody and anti-CD8 antibody (DAKO).
(§4) The percentage of specific cytotoxicity was determined by calculating the percentage of specific ^51Cr-release by the following formula: {(cpm of the test sample release−cpm of the spontaneous release)/(cpm of the maximum release−cpm of the spontaneous release)}×100. Spontaneous release was determined by incubating the target cells alone in the absence of effectors, and the maximum release was obtained by incubating the targets with 1N HCl. All determinants were done in duplicate, and the standard errors of the means were consistently below 10% of the value of the mean.

T2 cells (HLA-A*0201) [2] = test system: T2 cells (HLA-A*0201)
Experimental: as §3, §4

T2 cells (HLA-A*0201) [3] = test: 51Cr-release cytotoxicity assay of peptide-induced CTLs on T2 cells; details: for Cytotoxic activity of peptide-induced CTL line/clone on non-pulsed target: T2 not pulsed with any peptide; for Cytotoxic activity of peptide-induced CTL line/clone on peptide-pulsed target: T2 pulsed with the peptide
Experimental: as §3, §4

MKN-28 cells = test: MTT assay after transfection of S-oligonucleotides, MKN-28; assay type: cell-based, human; details: six days after transfection
Experimental: as §1, §2

MKN45 = test: Cytotoxicity of CTL clone against tumor cell line MKN45; assay type: cell-based, human; details: expresses GCUD1 but not HLA-A*0201
Experimental: (§5) Target cells were labeled with 100 μCi of Na2^51CrO4 (Perkin Elmer Life Sciences) for 1 h at 37° C. in a CO2 incubator. When peptide-pulsed targets were used, target cells were incubated with the addition of 20 μg/ml of the peptide for 16 h at 37° C. before the labeling with Na2^51CrO4. Target cells were rinsed and mixed with effectors at a final volume of 0.2 ml in round-bottom microtiter plates. The plates were centrifuged (4 minutes at 800×g) to increase cell-to-cell contact and placed in a CO2 incubator at 37° C. After 4 h of incubation, 0.1 ml of the supernatant was collected from each well and the radioactivity was determined with a gamma counter. In case of evaluating cytotoxicity against target cells that endogenously express RNF43, CXADRL1, or GCUD1, the cytolytic activity was tested in the presence of a 30-fold excess of unlabeled K562 cells to reduce any non-specific lysis due to NK-like effectors. […]
(§6) The percentage of specific cytotoxicity was determined by calculating the percentage of specific ^51Cr-release by the following formula: {(cpm of the test sample release−cpm of the spontaneous release)/(cpm of the maximum release−cpm of the spontaneous release)}×100. Spontaneous release was determined by incubating the target cells alone in the absence of effectors, and the maximum release was obtained by incubating the targets with 1N HCl. […]

SNU475 cells = test: Blocking assay with antibodies, target SNU475; assay type: cell-based, human
Experimental: as §3

SNU-C4 = test: Cytotoxicity of CTL clone against tumor cell line SNU-C4; details: HLA-A*0201 but not CXADRL1; RNF43 but little HLA-A24
Experimental: as §5, §6

MKN74 = test: Cytotoxicity of CTL clone against tumor cell line MKN74; assay type: cell-based, human; details: expresses CXADRL1 but not HLA-A*0201
Experimental: as §5, §6

Experimental for DLD-1: as §5, §6
Experimental for HT29: as §3, §4
Experimental for TISI cells (HLA-A24/24): as §3, §4

## 5′-CTACTCACCGTGCAGA-3′ (phosphorothioate, further chemistry not given here) [CXADRL1-AS4, antisense S-oligonucleotide]
[1]
  Viable cells (MTT assay) compared with control S-oligonucleotides: markedly fewer

## ALWPWLLMA [RNF43-11, ALWPWLLMA]
DLD-1
  Cytotoxic activity of CTL clone on DLD-1: high cytotoxic activity
HT29
  Cytotoxic activity of CTL clone on HT29: no significant cytotoxic activity

## TFCSSLSSDF [RNF43-496, TFCSSLSSDF]
TISI cells (HLA-A24/24)
  Cytotoxicity of CTL lines (10mer) ×2 Pep(+): 0%
  Cytotoxicity of CTL lines (10mer) ×2 Pep(−): 0%
  Cytotoxicity of CTL lines (10mer) ×20 Pep(+): 8%
  Cytotoxicity of CTL lines (10mer) ×20 Pep(−): 9%

## LFNLQKSSL [RNF43-639, LFNLQKSSL]
TISI cells (HLA-A24/24)
  Cytotoxic activity of peptide-induced CTL line/clone on peptide-pulsed target: higher cytotoxic activities
  Cytotoxicity of CTL lines (9mer) ×2 Pep(+): 7%
  Cytotoxicity of CTL lines (9mer) ×2 Pep(−): 5%
  Cytotoxicity of CTL lines (9mer) ×20 Pep(+): 42%
  Cytotoxicity of CTL lines (9mer) ×20 Pep(−): 33%

## RYQASCRQA [RNF43-247, RYQASCRQA]
TISI cells (HLA-A24/24)
  Cytotoxicity of CTL lines (9mer) ×2 Pep(+): 28%
  Cytotoxicity of CTL lines (9mer) ×2 Pep(−): 16%
  Cytotoxicity of CTL lines (9mer) ×20 Pep(+): 71%
  Cytotoxicity of CTL lines (9mer) ×20 Pep(−): 82%

## KMDAEHPEV [GCUD1-9V, KMDAEHPEV]
SNU475
  Cytotoxic activity of peptide-induced CTLs against SNU475: killed

## LLGPSRSAV [RNF43-358, LLGPSRSAV]
T2 cells (HLA-A*0201) [2]
  Cytotoxicity(%) ×2 Pep(+): 0.0%
  Cytotoxicity(%) ×2 Pep(−): −0.8%
  Cytotoxicity(%) ×20 Pep(+): −0.4%
  Cytotoxicity(%) ×20 Pep(−): −0.7%

## RAPGEQQRL [RNF43-397, RAPGEQQRL]
TISI cells (HLA-A24/24)
  Cytotoxicity of CTL lines (9mer) ×2 Pep(+): 15%
  Cytotoxicity of CTL lines (9mer) ×2 Pep(−): 15%
  Cytotoxicity of CTL lines (9mer) ×20 Pep(+): 41%
  Cytotoxicity of CTL lines (9mer) ×20 Pep(−): 32%

## FLTTASGVSV [GCUD1-272, FLTTASGVSV]
T2 cells (HLA-A*0201) [3]
  Cytotoxic activity of peptide-induced CTL line/clone on non-pulsed target: without showing any cytotoxic activity
  Cytotoxic activity of peptide-induced CTL line/clone on peptide-pulsed target: very potent cytotoxic activity

## ALSSGLYQV [CXADRL1-9V, ALSSGLYQV]
SNU475
  Cytotoxic activity of peptide-induced CTLs against SNU475: killed

## RPPRPGPFL [RNF43-368, RPPRPGPFL]
TISI cells (HLA-A24/24)
  Cytotoxicity of CTL lines (9mer) ×2 Pep(+): 0%
  Cytotoxicity of CTL lines (9mer) ×2 Pep(−): 0%
  Cytotoxicity of CTL lines (9mer) ×20 Pep(+): 1%
  Cytotoxicity of CTL lines (9mer) ×20 Pep(−): 0%

## SYQEPGRRL [RNF43-331, SYQEPGRRL]
TISI cells (HLA-A24/24)
  Cytotoxicity of CTL lines (9mer) ×2 Pep(+): 0%
  Cytotoxicity of CTL lines (9mer) ×2 Pep(−): 0%
  Cytotoxicity of CTL lines (9mer) ×20 Pep(+): 2%
  Cytotoxicity of CTL lines (9mer) ×20 Pep(−): 1%

## RAPRPCLSL [RNF43-114, RAPRPCLSL]
TISI cells (HLA-A24/24)
  Cytotoxicity of CTL lines (9mer) ×2 Pep(+): 6%
  Cytotoxicity of CTL lines (9mer) ×2 Pep(−): 9%
  Cytotoxicity of CTL lines (9mer) ×20 Pep(+): 23%
  Cytotoxicity of CTL lines (9mer) ×20 Pep(−): 26%

## LMQSHPLYL [RNF43-82, LMQSHPLYL]
T2 cells (HLA-A*0201) [2]
  Cytotoxicity(%) ×2 Pep(+): 0.0%
  Cytotoxicity(%) ×2 Pep(−): −0.4%
  Cytotoxicity(%) ×20 Pep(+): 1.7%
  Cytotoxicity(%) ×20 Pep(−): 1.2%

## SYCTERSGYL [RNF43-449, SYCTERSGYL]
TISI cells (HLA-A24/24)
  Cytotoxicity of CTL lines (10mer) ×2 Pep(+): 0%
  Cytotoxicity of CTL lines (10mer) ×2 Pep(−): 0%
  Cytotoxicity of CTL lines (10mer) ×20 Pep(+): 1%
  Cytotoxicity of CTL lines (10mer) ×20 Pep(−): 1%

## GFGRTGLVL [RNF43-24, GFGRTGLVL]
TISI cells (HLA-A24/24)
  Cytotoxicity of CTL lines (9mer) ×2 Pep(+): 1%
  Cytotoxicity of CTL lines (9mer) ×2 Pep(−): 2%
  Cytotoxicity of CTL lines (9mer) ×20 Pep(+): 8%
  Cytotoxicity of CTL lines (9mer) ×20 Pep(−): 9%

## YLLGPSRSAV [RNF43-357, YLLGPSRSAV]
T2 cells (HLA-A*0201) [2]
  Cytotoxicity(%) ×2 Pep(+): 3.7%
  Cytotoxicity(%) ×2 Pep(−): 3.0%
  Cytotoxicity(%) ×20 Pep(+): 18.2%
  Cytotoxicity(%) ×20 Pep(−): 15.4%

## ALWPWLLMAT [RNF43-11, ALWPWLLMAT]
T2 cells (HLA-A*0201) [2]
  Cytotoxic activity of peptide-induced CTL line/clone on peptide-pulsed target: higher cytotoxic activity
DLD-1
  Cytotoxic activity of CTL clone on DLD-1: high cytotoxic activity
HT29
  Cytotoxic activity of CTL clone on HT29: no significant cytotoxic activity

## WLLMATLQA [RNF43-15, WLLMATLQA]
T2 cells (HLA-A*0201) [2]
  Cytotoxicity(%) ×2 Pep(+): −0.4%
  Cytotoxicity(%) ×2 Pep(−): −0.9%
  Cytotoxicity(%) ×20 Pep(+): −0.2%
  Cytotoxicity(%) ×20 Pep(−): 0.0%

## HYTPSVAYPW [RNF43-683, HYTPSVAYPW]
TISI cells (HLA-A24/24)
  Cytotoxicity of CTL lines (10mer) ×2 Pep(+): 0%
  Cytotoxicity of CTL lines (10mer) ×2 Pep(−): −1%
  Cytotoxicity of CTL lines (10mer) ×20 Pep(+): 0%
  Cytotoxicity of CTL lines (10mer) ×20 Pep(−): 0%

## WLHQHRTCPL [RNF43-302, WLHQHRTCPL]
T2 cells (HLA-A*0201) [2]
  Cytotoxicity(%) ×2 Pep(+): 1.5%
  Cytotoxicity(%) ×2 Pep(−): 2.2%
  Cytotoxicity(%) ×20 Pep(+): 7.4%
  Cytotoxicity(%) ×20 Pep(−): 6.1%

## KLMEFVYKN [RNF43-171, KLMEFVYKN]
T2 cells (HLA-A*0201) [2]
  Cytotoxicity(%) ×2 Pep(+): 1.1%
  Cytotoxicity(%) ×2 Pep(−): −0.5%
  Cytotoxicity(%) ×20 Pep(+): 2.6%
  Cytotoxicity(%) ×20 Pep(−): 0.0%

## KMDPTGKLNL [RNF43-54, KMDPTGKLNL]
TISI cells (HLA-A24/24)
  Cytotoxic activity of peptide-induced CTL line/clone on peptide-pulsed target: modest cytotoxic activity
  Cytotoxicity of CTL lines (10mer) ×2 Pep(+): 0%
  Cytotoxicity of CTL lines (10mer) ×2 Pep(−): −1%
  Cytotoxicity of CTL lines (10mer) ×20 Pep(+): 5%
  Cytotoxicity of CTL lines (10mer) ×20 Pep(−): 2%

## 5′-CAGCCATCCTGAAAAG-3′ (phosphorothioate, further chemistry not given here) [GCUD1-AS5, antisense S-oligonucleotide]
MKN-28 cells
  Viable cells (MTT assay) compared with control S-oligonucleotides: markedly fewer

## CC(C)C[C@H](NC(=O)[C@@H](N)CS)C(=O)N[C@@H](Cc1c[nH]cn1)C(=O)N[C@@H](CCC(=O)O)C(=O)N[C@@H](Cc1ccccc1)C(=O)N[C@@H](Cc1c[nH]cn1)C(=O)N[C@@H](CCCNC(=N)N)C(=O)N[C@@H](CC(N)=O)C(=O)N[C@@H](CS)C(=O)N[C@H](C(=O)O)C(C)C [RNF43-290, CLHEFHRNCV] (H-CLHEFHRNCV-OH)
T2 cells (HLA-A*0201) [2]
  Cytotoxicity(%) ×2 Pep(+): 2.7%
  Cytotoxicity(%) ×2 Pep(−): 3.7%
  Cytotoxicity(%) ×20 Pep(+): 9.6%
  Cytotoxicity(%) ×20 Pep(−): 9.7%

## 5′-CGGCTTACCTCAACCT-3′ (phosphorothioate, further chemistry not given here) [GCUD1-AS8, antisense S-oligonucleotide]
MKN-28 cells
  Viable cells (MTT assay) compared with control S-oligonucleotides: markedly fewer

## KLMQSHPLYL [RNF43-81, KLMQSHPLYL]
T2 cells (HLA-A*0201) [2]
  Cytotoxicity(%) ×2 Pep(+): 6.3%
  Cytotoxicity(%) ×2 Pep(−): 8.3%
  Cytotoxicity(%) ×20 Pep(+): 18.0%
  Cytotoxicity(%) ×20 Pep(−): 27.6%
TISI cells (HLA-A24/24)
  Cytotoxic activity of peptide-induced CTL line/clone on peptide-pulsed target: modest cytotoxic activity
  Cytotoxicity of CTL lines (10mer) ×2 Pep(+): 2%
  Cytotoxicity of CTL lines (10mer) ×2 Pep(−): −3%
  Cytotoxicity of CTL lines (10mer) ×20 Pep(+): 10%
  Cytotoxicity of CTL lines (10mer) ×20 Pep(−): 5%

## 5′-TGCAACACCTACAGAA-3′ (phosphorothioate, further chemistry not given here) [CXADRL1-AS5, antisense S-oligonucleotide]
[1]
  Viable cells (MTT assay) compared with control S-oligonucleotides: markedly fewer

## KMDAEHPEL [GCUD1-196, KMDAEHPEL]
MKN45
  Cytotoxic activity of CTL clone against MKN45: not against
SNU475 cells
  Cytotoxicity of CTL clone against SNU475 with anti-HLA-Class I antibody and anti-CD8 antibody: significantly inhibited
T2 cells (HLA-A*0201) [3]
  Cytotoxic activity of peptide-induced CTL line/clone on non-pulsed target: without showing any cytotoxic activity
  Cytotoxic activity of peptide-induced CTL line/clone on peptide-pulsed target: very potent cytotoxic activity
SNU475
  Cytotoxic activity of peptide-induced CTLs against SNU475: potent cytotoxic activity

## ALSSGLYQC [CXADRL1-207, ALSSGLYQC]
SNU475 cells
  Cytotoxicity of CTL clone against SNU475 with anti-HLA-Class I antibody and anti-CD8 antibody: significantly inhibited
SNU-C4
  Cytotoxic activity of CTL clone against SNU-C4: not against
T2 cells (HLA-A*0201) [3]
  Cytotoxic activity of peptide-induced CTL line/clone on non-pulsed target: without showing any cytotoxic activity
  Cytotoxic activity of peptide-induced CTL line/clone on peptide-pulsed target: very potent cytotoxic activity
SNU475
  Cytotoxic activity of peptide-induced CTLs against SNU475: potent cytotoxic activity
MKN74
  Cytotoxic activity of CTL clone against MKN74: not against

## KLNLTLEGV [RNF43-60, KLNLTLEGV]
T2 cells (HLA-A*0201) [2]
  Cytotoxicity(%) ×2 Pep(+): −1.6%
  Cytotoxicity(%) ×2 Pep(−): 0.0%
  Cytotoxicity(%) ×20 Pep(+): −2.1%
  Cytotoxicity(%) ×20 Pep(−): 0.2%

## GLTWPVVLI [RNF43-156, GLTWPVVLI]
T2 cells (HLA-A*0201) [2]
  Cytotoxicity(%) ×2 Pep(+): −0.5%
  Cytotoxicity(%) ×2 Pep(−): −0.3%
  Cytotoxicity(%) ×20 Pep(+): −0.4%
  Cytotoxicity(%) ×20 Pep(−): 0.7%
